Like-named read-outs stand apart in the source and are kept apart here.
Experiments:
[1] = system: ALA dehydratase variant of strain CR-514; assay: ALA dehydratase reaction with crude enzyme of strain CR-514; format: biochemical, Rhodobacter sphaeroides CR-514; conditions: enzyme of CR-514, unit not given (concentrations in method in mM)
strain CR-533 = conditions: glycine 30 mM, 30° C., dark
Method: (§1) A 500 ml portion of medium 1 was prepared in a 2 l capacity shaking flask. This was sterilized at 121° C. for 15 minutes and then spontaneously cooled.
(§2) Separately from this, each of the mutant strains CR-514, CR-520 and CR-533 obtained in Example 3 was inoculated into a 21 mm.phi. test tube containing 10 ml of medium 1 which was sterilized in the same manner as described in the foregoing and cultured in the dark at 30° C. for 48 hours on a shaker.
(§3) The entire portion of each culture broth was inoculated into the aforementioned shaking flask and cultured in the dark at 30° C. for 48 hours on a shaker, and the resulting cells were collected by centrifugation.
(§4) The thus collected cells were suspended in 150 ml of sterilized medium 1, to a wet cell density of about 0.3 g/10 ml, and the cell suspension was mixed with 30 mM of glycine and dispensed in 10 ml portions into 21 mm.phi. test tubes. After adding varied concentration of levulinic acid, shaking culture was carried out at 30° C. in the dark.
(§5) (Clinical Chemistry, 36(8): 1494 (1990)).

strain CR-514 = conditions: glycine 30 mM, 30° C., dark
Method: as §1, §2, §3, §4, §5

strain CR-520 = conditions: glycine 30 mM, 30° C., dark
Method: as §1, §2, §3, §4, §5

[2] = system: Rhodobacter sphaeroides IFO 12203; conditions: glycine 30 mM, 30° C., dark
Method: as §1, §2, §3, §4, §5

[3] = target: ALA dehydratase of Rhodobacter sphaeroides CR-450; assay: ALA dehydratase reaction with crude enzyme of CR-450 (Comparative Example 2); format: biochemical; conditions: inhibitor constant of levulinic acid, Dixon plot, 37° C., 60 minutes, unit not given (concentrations in method in mM)
[4] = system: Rhodobacter sphaeroides CR-450; conditions: glycine 30 mM, 30° C., dark
Method: as §1, §2, §3, §4, §5
The process of Example 4 was conducted, except that Rhodobacter sphaeroides CR-450 was used and the amount of levulinic acid was changed as shown in Table 3.

[5] = target: ALA dehydratase variant of strain CR-520; assay: ALA dehydratase reaction with crude enzyme of strain CR-520; format: biochemical, Rhodobacter sphaeroides CR-520; conditions: inhibitor constant of levulinic acid, Dixon plot; enzyme of CR-520; 37° C., 60 minutes; unit not given (concentrations in method in mM)
[6] = target: ALA dehydratase of strain CR-533; conditions: inhibitor constant of levulinic acid, Dixon plot; enzyme of CR-533; 37° C., 60 minutes; unit not given (concentrations in method in mM)

Compound `NCC(=O)CCC(=O)O` [ALA, 5-aminolevulinic acid] has a Km ([1]; Michaelis constant for ALA, Lineweaver-Burk) of 0.76 mM.

In the case of `CC(=O)CCC(=O)O` [levulinic acid], the “Amount of ALA formed after 15 hours” value (strain CR-533; levulinic acid 5 mM) was 1.7 mM, the “Amount of ALA formed after 30 hours” value (strain CR-533; levulinic acid 5 mM) was 2.4 mM and the “Amount of ALA formed after 15 hours” value (strain CR-533; levulinic acid 15 mM) was 2.4 mM. For the same compound, the “Amount of ALA formed after 30 hours” value (strain CR-533; levulinic acid 15 mM) was 3.9 mM, the “Amount of ALA formed after 15 hours” value (strain CR-533; levulinic acid 30 mM) was 2.2 mM and the “Amount of ALA formed after 30 hours” value (strain CR-533; levulinic acid 30 mM) was 3.3 mM. The “Amount of ALA formed after 15 hours” value (strain CR-514; levulinic acid 1 mM) was 1.5 mM, the “Amount of ALA formed after 30 hours” value (strain CR-514; levulinic acid 1 mM) was 1.5 mM and the “Amount of ALA formed after 15 hours” value (strain CR-514; levulinic acid 5 mM) was 2.0 mM. For the same compound, the “Amount of ALA formed after 30 hours” value (strain CR-514; levulinic acid 5 mM) was 3.0 mM, the “Amount of ALA formed after 15 hours” value (strain CR-514; levulinic acid 10 mM) was 2.2 mM and the “Amount of ALA formed after 30 hours” value (strain CR-514; levulinic acid 10 mM) was 4.1 mM. For the same compound, the “Amount of ALA formed after 15 hours” value (strain CR-520; levulinic acid 0.5 mM) was 2.0 mM, the “Amount of ALA formed after 30 hours” value (strain CR-520; levulinic acid 0.5 mM) was 2.8 mM and the “Amount of ALA formed after 15 hours” value (strain CR-520; levulinic acid 1 mM) was 2.5 mM. The “Amount of ALA formed after 30 hours” value (strain CR-520; levulinic acid 1 mM) was 4.5 mM, the “Amount of ALA formed after 15 hours” value (strain CR-520; levulinic acid 5 mM) was 3.0 mM and the “Amount of ALA formed after 30 hours” value (strain CR-520; levulinic acid 5 mM) was 6.5 mM. For the same compound, the “Amount of ALA formed after 15 hours” value ([2]; levulinic acid 5 mM) was 0.01 mM, the “Amount of ALA formed after 30 hours” value ([2]; levulinic acid 5 mM) was 0 mM and the “Amount of ALA formed after 15 hours” value ([2]; levulinic acid 15 mM) was 0.1 mM. The “Amount of ALA formed after 30 hours” value ([2]; levulinic acid 15 mM) was 0 mM, the Ki [3] was 0.37 mM and the “Amount of ALA formed after 15 hours” value ([4]; levulinic acid 5 mM) was 1.5 mM. The “Amount of ALA formed after 30 hours” value ([4]; levulinic acid 5 mM) was 1.5 mM, the “Amount of ALA formed after 15 hours” value ([4]; levulinic acid 15 mM) was 2.5 mM and the “Amount of ALA formed after 30 hours” value ([4]; levulinic acid 15 mM) was 3.8 mM. The “Amount of ALA formed after 15 hours” value ([4]; levulinic acid 30 mM) was 2.0 mM, the “Amount of ALA formed after 30 hours” value ([4]; levulinic acid 30 mM) was 2.5 mM and the Ki [5] was 0.07 mM. It also gave a Ki [6] of 0.36 mM and a Ki ([1]; inhibitor constant of levulinic acid, Dixon plot, 37° C., 60 minutes) of 0.21 mM.
